Measured values as given in BindingDB's records for doi:10.1016/j.ejmech.2021.113764 (China Pharmaceutical University, 2021).

Key:
[1] = Antagonist activity at PAR4 in ICR mouse platelet-rich plasma assessed as inhibition of PAR4 AP AYPGKF-NH2-induced platelet aggregation by photo-turbidimetry assay
[2] = Antagonist activity at PAR4 in human platelet-rich plasma assessed as inhibition of PAR4 AP AYPGKF-NH2-induced platelet aggregation by photo-turbidimetry assay

Row | Compound | IC50 [1] [µM] | IC50 [2] [µM]
1 | COCc1nc2cc(C)cc(-c3nn4cc(C)nc4s3)c2[nH]1 | 3.13 | 
2 | Cc1cc2c(c(-c3nn4ccnc4s3)c1)CCN(C)C2=O | > 10 | 
3 | Cc1cc2c(c(-c3nn4cc(C)nc4s3)c1)CCN(C)C2=O | 8.7 | 
4 | Cc1cc(-c2nn3ccnc3s2)c2ccn(C)c(=O)c2c1 | 3 | 
5 | Cc1cc(-c2nn3cc(C)nc3s2)c2ccn(C)c(=O)c2c1 | 3.21 | 
6 | COCc1cnc2c(-c3nc4c(Cl)cc(OC)cc4s3)cc(C)cc2n1 | 0.79 | 
7 | COCc1nc2cc(C)cc(-c3nc4c(Cl)cc(OC)cc4s3)c2[nH]1 | 1.63 | 
8 | COc1cc(Cl)c2nc(-c3cc(C)cc4c3CCN(C)C4=O)sc2c1 | 1.84 | 
9 | COc1cc(Cl)c2nc(-c3cc(C)cc4c(=O)n(C)ccc34)sc2c1 | 0.98 | 
10 | COc1cc(Cl)c2nc(-c3cc(C)cc4c(=O)n(C)cnc34)sc2c1 |  | 0.02
11 | Cc1cc(-c2ccc(Cl)cc2Cl)c2ncn(C)c(=O)c2c1 | 1.22 | 0.174
12 | COc1cc(F)c2nc(-c3cc(C)cc4c(=O)n(C)cnc34)sc2c1 | 0.83 | 0.078
13 | Cc1cc(-c2nc3c(s2)CCCC3)c2ncn(C)c(=O)c2c1 | 0.11 | 0.029
14 | CCOCn1cnc2c(-c3nc4c(Cl)cc(OC)cc4s3)cc(C)cc2c1=O | 0.65 | 0.107
15 | Cc1cc(-c2nc3c(Cl)cc(OCCNS(=O)(=O)c4ccc(C(F)(F)F)cc4)cc3s2)c2ncn(C)c(=O)c2c1 | 0.17 | 0.0066
16 | Cc1cc(-c2ccccc2)c2ncn(C)c(=O)c2c1 | > 10 | 
17 | Cc1ccc(-c2cc(C)cc3c(=O)n(C)cnc23)cc1 | > 10 | 
18 | Cc1cc(-c2ccccc2C)c2ncn(C)c(=O)c2c1 | > 10 | 
19 | COc1ccccc1-c1cc(C)cc2c(=O)n(C)cnc12 | 7.32 | 
20 | Cc1cc(-c2ccccc2F)c2ncn(C)c(=O)c2c1 | 5.48 | 
21 | Cc1cc(-c2ccc(F)cc2O)c2ncn(C)c(=O)c2c1 | > 10 | 
22 | Cc1cc(-c2cccc(Cl)c2Cl)c2ncn(C)c(=O)c2c1 | 3.7 | 
23 | Cc1cc(-c2ccccc2C#N)c2ncn(C)c(=O)c2c1 | > 10 | 
24 | Cc1cc(-c2cccnc2)c2ncn(C)c(=O)c2c1 | > 10 | 

Row | Compound | IC50 [1] [µM] | IC50 [2] [µM]
25 | Cc1cc(-c2nccs2)c2ncn(C)c(=O)c2c1 | 3.64 | 
26 | Cc1cc(-c2cccc3ccccc23)c2ncn(C)c(=O)c2c1 | > 10 | 
27 | Cc1cc(-c2ccc3ccccc3n2)c2ncn(C)c(=O)c2c1 | > 10 | 
28 | Cc1cc(-c2cc3ccccc3o2)c2ncn(C)c(=O)c2c1 | 4.26 | 
29 | Cc1cc(-c2nc3c(Cl)cc(Cl)cc3s2)c2ncn(C)c(=O)c2c1 | 2.62 | 
30 | Cc1cc(-c2nc3c(Cl)cc4c(c3s2)OCCO4)c2ncn(C)c(=O)c2c1 | 5.57 | 
31 | Cc1cc(-c2nc3c(Cl)cc(OCCNC(=O)OC(C)(C)C)cc3s2)c2ncn(C)c(=O)c2c1 | 2.07 | 
32 | COc1cc(Cl)c2nc(-c3cccc4c(=O)n(C)cnc34)sc2c1 | 6.78 | 
33 | CCn1cnc2c(-c3nc4c(Cl)cc(OC)cc4s3)cc(C)cc2c1=O | 1.85 | 
34 | COc1cc(Cl)c2nc(-c3cc(C)cc4c(=O)n(C(C)C)cnc34)sc2c1 | 9.77 | 
35 | COCn1cnc2c(-c3nc4c(Cl)cc(OC)cc4s3)cc(C)cc2c1=O | 1 | 
36 | COc1cc(Cl)c2nc(-c3cc(C)cc4c(=O)n(Cc5ccccc5)cnc34)sc2c1 | > 10 | 
37 | CCCCc1cc(-c2nc3c(Cl)cc(OC)cc3s2)c2ncn(C)c(=O)c2c1 | 1.38 | 
38 | COc1cc(Cl)c2nc(-c3cc(C)cc4c(=O)n(C)c(C)nc34)sc2c1 | 2.09 | 
39 | COc1cc(Cl)c2nc(-c3cc(C)cc4c(=O)n(C)c(C(C)C)nc34)sc2c1 | > 10 | 
40 | COc1cc(F)c2nc(-c3cccc4c(=O)n(C)cnc34)sc2c1 | 5.34 | 
41 | CCn1cnc2c(-c3nc4c(F)cc(OC)cc4s3)cc(C)cc2c1=O | 9.95 | 
42 | COc1cc(F)c2nc(-c3cc(C)cc4c(=O)n(C(C)C)cnc34)sc2c1 | 6.74 | 
43 | C#CCn1cnc2c(-c3nc4c(F)cc(OC)cc4s3)cc(C)cc2c1=O | 4.2 | 
44 | COc1cc(F)c2nc(-c3cc(C)cc4c(=O)n(C)c(C)nc34)sc2c1 | 5.45 | 
45 | Cn1cnc2c(-c3nc4c(s3)CCCC4)cccc2c1=O | 2.61 | 
46 | Cc1cc(-c2nc3c(s2)CCCC3)c2nc[nH]c(=O)c2c1 | 1.38 | 
47 | CCn1cnc2c(-c3nc4c(s3)CCCC4)cc(C)cc2c1=O | 3.74 | 
48 | Cc1cc(-c2nc3c(s2)CCCC3)c2ncn(C(C)C)c(=O)c2c1 | > 10 | 

Row | Compound | IC50 [1] [µM] | IC50 [2] [µM]
49 | COCn1cnc2c(-c3nc4c(s3)CCCC4)cc(C)cc2c1=O | 2.32 | 
50 | CCOCn1cnc2c(-c3nc4c(s3)CCCC4)cc(C)cc2c1=O | 4.77 | 
51 | CCc1cc(-c2nc3c(s2)CCCC3)c2ncn(C)c(=O)c2c1 | 3.54 | 
52 | CCc1cc(-c2nc3c(s2)CCCC3)c2ncn(CC)c(=O)c2c1 | > 10 | 
53 | CCCCc1cc(-c2nc3c(s2)CCCC3)c2ncn(C)c(=O)c2c1 | 7.04 | 
54 | CCCCc1cc(-c2nc3c(s2)CCCC3)c2ncn(CC)c(=O)c2c1 | 6.28 | 
55 | Cc1cc(-c2nc3c(s2)CCCC3)c2nc(C)n(C)c(=O)c2c1 | 8.21 | 
56 | Cc1cc(-c2nc3c(Cl)cc(OCCN)cc3s2)c2ncn(C)c(=O)c2c1 | 3.02 | 
57 | Cc1cc(-c2nc3c(Cl)cc(OCCNS(C)(=O)=O)cc3s2)c2ncn(C)c(=O)c2c1 | > 10 | 
58 | Cc1cc(-c2nc3c(Cl)cc(OCCNS(=O)(=O)c4ccccc4)cc3s2)c2ncn(C)c(=O)c2c1 | 2.52 | 
59 | Cc1ccc(S(=O)(=O)NCCOc2cc(Cl)c3nc(-c4cc(C)cc5c(=O)n(C)cnc45)sc3c2)cc1 | 0.52 | 
60 | Cc1cc(-c2nc3c(Cl)cc(OCCNS(=O)(=O)c4ccc(Cl)cc4)cc3s2)c2ncn(C)c(=O)c2c1 | 1.04 | 
61 | Cc1cc(-c2nc3c(Cl)cc(OCCNS(=O)(=O)c4ccc(F)cc4)cc3s2)c2ncn(C)c(=O)c2c1 | 8.22 | 
62 | Cc1cc(-c2nc3c(Cl)cc(OCCNS(=O)(=O)c4ccc(Cl)cc4Cl)cc3s2)c2ncn(C)c(=O)c2c1 | 0.95 | 
63 | Cc1cc(-c2nc3c(Cl)cc(OCCNC(=O)c4ccccc4)cc3s2)c2ncn(C)c(=O)c2c1 | > 10 | 
64 | Cc1cc(-c2nc3c(Cl)cc(OCCNS(=O)(=O)c4ccc(-c5ccccc5)cc4)cc3s2)c2ncn(C)c(=O)c2c1 | > 10 | 
65 | Cc1cn2nc(-c3cccc4ccoc34)sc2n1 | 7.61 | 
66 | COCc1cc2cc(C)cc(-c3nn4ccnc4s3)c2o1 | 3.44 | 
67 | COCc1cc2cc(C)cc(-c3nn4cc(C)nc4s3)c2o1 | 4.82 | 
68 | COCc1cc2ccc(OC)c(-c3nn4ccnc4s3)c2o1 | 10 | 
69 | COCc1cc2ccc(OC)c(-c3nn4cc(C)nc4s3)c2o1 | 10 | 
70 | CCc1cc(-c2nc3c(Cl)cc(OC)cc3s2)c2ncn(C)c(=O)c2c1 | 0.16 | 0.04
71 | CSc1nn2cc(-c3cc4ccccc4o3)nc2s1 [US9862730, Example 1] | 0.94 | 
72 | Cc1nn2cc(-c3cc4ccccc4o3)nc2s1 [US9862730, Example 41] | 1.82 | 
